System: freshly isolated, quiescent human T cells
Experiment: Lentiviral transduction of freshly isolated quiescent (non-activated) T cells, flow cytometry
Format: cell-based
Method: Peripheral blood leukocytes from healthy donors were obtained from the Human Immunology Core. Informed consent was obtained from all participants prior to collection. All methods and experimental procedures were approved by the University of Pennsylvania Institutional Review Board. T cells were purified at the University's Human Immunology Core by negative selection using the RosetteSep T cell enrichment Cocktail. T cells were serum starved in RPMI media containing 10 mM HEPES, 2 mM L-glutamine 100 U/mL penicillin G and 100 μg/mL streptomycin for 2-6 hours and then resuspended at a concentration of 10^7 T cells/mL in X-VIVO 15 (Cambrex, Walkersville, Md.) supplemented with 5% normal human AB serum (Valley Biomedical, Winchester, Va.), 2 mM L-glutamine (Cambrex), 20 mM HEPES (Cambrex), IL7 and IL15 (10 ng/mL, Miltenyi Biotec), and deoxynucleosides (50 μM, Sigma). As the medium was switched to X-VIVO 15, T cells were simultaneously transduced with CD19-BBζ CAR or iRFP lentiviral supernatants for 24 hours.
1×10^6 cells were stained for cell surface markers to analyze T-cell differentiation status. […] Cells were washed with phosphate-buffered saline (PBS) and stained for viability using LIVE/DEAD Fixable Violet (Molecular Probes) for 15 minutes, washed once, and resuspended in fluorescence activated cell sorting (FACS) buffer containing PBS, 1% BSA, and 5 mM EDTA. […] Positively stained cells were differentiated from background using fluorescence-minus-one (FMO) controls. […]
For activated T cells, cells were resuspended at 10^6 T cells/mL in X-VIVO 15 (Cambrex, Walkersville, Md.) supplemented with 5% human AB serum (Valley Biomedical, Winchester, Va.), 2 mM L-glutamine (Cambrex), 20 mM HEPES (Cambrex), IL-7 and IL-15 (10 ng/mL, Miltenyi Biotec). […] Cell volume was also measured with a Multisizer III particle counter (Beckman-Coulter) every other day. […]
T cell differentiation was assessed using the following antibodies: anti-CCR7-FITC (BD Pharmingen); anti-CD45RO-PE, anti-CD8-H7APC (BD Biosciences); anti-CD4-BV510, anti-CD3-BV605, anti-CD14-Pacific Blue (PB), anti-CD19-PB (BioLegend). […]

deoxynucleosides [dNs]
increase in transduction efficiency of quiescent T cells (50 μM dNs vs cells in medium containing IL-7 and IL-15, iRFP vector (FIG. 2B)): 3 fold | increase in lentiviral transduction of non-activated T cells (50 μM dNs, normalized to complete media without dNs, iRFP vector (FIG. 6B)): ~2 fold | transduction efficiency in quiescent T cells (serum starvation combined with high concentrations of dNs (FIG. 2B)): exceeding 50%

Source: US20220168389A1, “METHODS OF MAKING CHIMERIC ANTIGEN RECEPTOR-EXPRESSING CELLS” (priority 2019, published 2022)
